From patent publication US20060151899A1, “Process for producing drug ultramicroparticle and apparatus therefor” (priority 2004, published 2006)

Experiment: Solubility under substantially physiological conditions
Type: physicochemical
Settings: pH 5 to 7

## NS(=O)(=O)c1ccc(S(=O)(=O)Nc2cccc3c(Cl)c[nH]c23)cc1 [N-(3-chloro-7-indolyl)-1,4-benzenedisulfonamide]
  Solubility: insoluble or slightly soluble
